# Like-named read-outs stand apart in the source and are kept apart here.
# What was measured:
# MC1-R = experiment: Competitive inhibition binding assay using [I125]-NDP-α-MSH, MC1-R; conditions: membranes of B-16 mouse melanoma cells (endogenous MC1-R), in some instances HEK-293 hMC1-R
# Experimental: 7.1 Competitive Inhibition Assay using [I^125]-NDP-α-MSH.
# A competitive inhibition binding assay was performed for exemplified peptides according to the invention using membrane homogenates prepared from HEK-293 cells that express recombinant hMC4-R, hMC3-R, or hMC5-R, and from B-16 mouse melanoma cells (containing endogenous MC1-R). In some instances, HEK-293 cells that express recombinant hMC1-R were employed. Assays were performed in 96 well GF/B Millipore multiscreen filtration plates (MAFB NOB10) pre-coated with 0.5% bovine serum albumin (Fraction V). Membrane homogenates were incubated with 0.2 nM (for hMC4-R) 0.4 nM (for MC3-R and MC5-R) or 0.1 nM (for mouse B16 MC1-R or hMC1-R) [I^125]-NDP-α-MSH (Perkin Elmer) and increasing concentrations of test peptides of the present invention in buffer containing 25 mM HEPES buffer (pH 7.5) with 100 mM NaCl, 2 mM CaCl2, 2 mM MgCl2, 0.3 mM 1,10-phenanthroline, and 0.2% bovine serum albumin. After incubation for 60 minutes at 37° C., the assay mixture was filtered and the membranes washed three times with ice-cold buffer. Filters were dried and counted in a gamma counter for bound radioactivity. […] Maximal specific binding (100%) was defined as the difference in radioactivity (cpm) bound to cell membranes in the absence and presence of 1 μM NDP-α-MSH. […] Each assay was conducted in triplicate and the actual mean values are described, with results less than 0% reported as 0%. Ki values for test peptides of the present invention were determined using Graph-Pad Prism® curve-fitting software.
# hMC4-R [1] = target: T1, hMC4-R (Homo sapiens (Human), UniProt P32245); experiment: High and low density hMC4-R functional assay (cAMP, HEK293-T-REx-MC4-R cells); assay type: cell-based; conditions: for Emax: NDP-α-MSH = 100%, read-out: Intrinsic Activity (%)
# hMC4-R [2] = target: T1, hMC4-R; experiment: Competitive inhibition binding assay using [I125]-NDP-α-MSH, hMC4-R; conditions: membranes of HEK-293 cells expressing recombinant hMC4-R, read-out: MC4-R Ki
# [3] = 0.1 ng/mL Doxycycline (low density hMC4-R system)
# [4] = 10 ng/mL Doxycycline (high density hMC4-R system)
# T1 sequence (P32245 whole entry): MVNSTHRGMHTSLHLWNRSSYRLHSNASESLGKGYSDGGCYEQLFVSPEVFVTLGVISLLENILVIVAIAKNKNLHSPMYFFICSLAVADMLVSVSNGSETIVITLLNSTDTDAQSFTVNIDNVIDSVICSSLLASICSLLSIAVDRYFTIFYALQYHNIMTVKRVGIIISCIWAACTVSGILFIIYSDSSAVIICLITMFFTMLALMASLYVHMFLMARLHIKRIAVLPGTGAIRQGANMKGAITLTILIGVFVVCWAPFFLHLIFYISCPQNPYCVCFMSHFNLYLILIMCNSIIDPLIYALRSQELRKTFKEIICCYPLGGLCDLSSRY
structure (smiles),measurement,setting,value
"CC(=O)N[C@@H](CCCNC(=N)N)C(=O)N[C@H]1CCC(=O)NCCC[C@@H](C(N)=O)NC(=O)[C@H](Cc2c[nH]c3ccccc23)NC(=O)[C@H](CCCNC(=N)N)NC(=O)[C@@H](Cc2ccc(F)cc2)NC(=O)[C@H](CC(N)=O)NC1=O [Example 69, Ac-Arg-cyclo(Glu-Asn-D-Phe(4-F)-Arg-Trp-Orn)-NH2]",Ki,MC1-R,150 nM
same,EC50,hMC4-R [1]; [3],0.25 nM
same,Emax,hMC4-R [1]; [3],76%
same,EC50,hMC4-R [1]; [4],0.095 nM
same,Emax,hMC4-R [1]; [4],92%
same,Ki,hMC4-R [2],3 nM
"CC(=O)N[C@H](CCCNC(=N)N)C(=O)N[C@H]1CCCNC(=O)CC[C@@H](C(N)=O)NC(=O)[C@H](Cc2c[nH]c3ccccc23)NC(=O)[C@H](CCCNC(=N)N)NC(=O)[C@@H](Cc2cccc(Cl)c2)NC(=O)[C@H](Cc2c[nH]cn2)NC1=O [Example 51, Ac-D-Arg-cyclo(Orn-His-D-Phe(3-Cl)-Arg-Trp-Glu)-NH2]",Ki,MC1-R,3 nM
same,EC50,hMC4-R [1]; [3],0.64 nM
same,Emax,hMC4-R [1]; [3],22%
same,EC50,hMC4-R [1]; [4],0.4 nM
same,Emax,hMC4-R [1]; [4],95%
same,Ki,hMC4-R [2],0.6 nM
"CC(=O)N[C@@H](CCCNC(=N)N)C(=O)N[C@H]1CCC(=O)NCCC[C@@H](C(N)=O)NC(=O)[C@H](Cc2c[nH]c3ccccc23)NC(=O)[C@H](CCCNC(=N)N)NC(=O)[C@@H](Cc2ccc(C#N)cc2)NC(=O)[C@H](CO)NC1=O [Example 45, Ac-Arg-cyclo(Glu-Ser-D-Phe(4-CN)-Arg-Trp-Orn)-NH2]",Ki,MC1-R,10000 nM
same,Emax,hMC4-R [1]; [3],12%
same,EC50,hMC4-R [1]; [4],0.45 nM
same,Emax,hMC4-R [1]; [4],87%
same,Ki,hMC4-R [2],10 nM
"CC(=O)N[C@@H](CCCNC(=N)N)C(=O)N[C@H]1CCC(=O)NCCC[C@@H](C(N)=O)NC(=O)[C@H](Cc2c[nH]c3ccccc23)NC(=O)[C@H](CCCNC(=N)N)NC(=O)[C@@H](Cc2ccccc2C)NC(=O)[C@H](CCC(N)=O)NC1=O [Example 110, Ac-Arg-cyclo(Glu-Gln-D-Phe(2-Me)-Arg-Trp-Orn)-NH2]",Ki,MC1-R,105 nM
same,EC50,hMC4-R [1]; [3],0.6 nM
same,Emax,hMC4-R [1]; [3],84%
same,EC50,hMC4-R [1]; [4],0.06 nM
same,Emax,hMC4-R [1]; [4],105%
same,Ki,hMC4-R [2],5 nM
"CC(=O)N[C@H](CCCNC(=N)N)C(=O)N[C@H]1CCCNC(=O)CC[C@@H](C(N)=O)NC(=O)[C@H](Cc2c[nH]c3ccccc23)NC(=O)[C@H](CCCNC(=N)N)NC(=O)[C@@H](Cc2ccc(C#N)cc2)NC(=O)[C@H](Cc2c[nH]cn2)NC1=O [Example 52, Ac-D-Arg-cyclo(Orn-His-D-Phe(4-CN)-Arg-Trp-Glu)-NH2]",Ki,MC1-R,6 nM
same,EC50,hMC4-R [1]; [3],0.325 nM
same,Emax,hMC4-R [1]; [3],31%
same,EC50,hMC4-R [1]; [4],0.2 nM
same,Emax,hMC4-R [1]; [4],99%
same,Ki,hMC4-R [2],0.6 nM
"CC(=O)N[C@@H](CCCNC(=N)N)C(=O)N[C@H]1CCC(=O)NCCC[C@@H](C(N)=O)NC(=O)[C@H](Cc2c[nH]c3ccccc23)NC(=O)[C@H](CCCNC(=N)N)NC(=O)[C@@H](Cc2ccc(C#N)cc2)NC(=O)[C@@H]2CCCN2C1=O [Example 39, Ac-Arg-cyclo(Glu-Pro-D-Phe(4-CN)-Arg-Trp-Orn)-NH2]",Ki,MC1-R,1550 nM
same,Emax,hMC4-R [1]; [3],4%
same,EC50,hMC4-R [1]; [4],1 nM
same,Emax,hMC4-R [1]; [4],79%
same,Ki,hMC4-R [2],4 nM
"CC(=O)N[C@@H](CCCNC(=N)N)C(=O)N[C@H]1CCC(=O)NCCC[C@@H](C(N)=O)NC(=O)[C@H](Cc2c[nH]c3ccccc23)NC(=O)[C@H](CCCNC(=N)N)NC(=O)[C@@H](Cc2ccccc2F)NC(=O)[C@@H]2C[C@@H](O)CN2C1=O [Example 64, Ac-Arg-cyclo(Glu-Hyp-D-Phe(2-F)-Arg-Trp-Orn)-NH2]",Ki,MC1-R,53 nM
same,EC50,hMC4-R [1]; [3],1 nM
same,Emax,hMC4-R [1]; [3],57%
same,EC50,hMC4-R [1]; [4],0.08 nM
same,Emax,hMC4-R [1]; [4],90%
same,Ki,hMC4-R [2],3 nM
"CC(=O)N[C@H](CCCNC(=N)N)C(=O)N[C@H]1CCCNC(=O)CC[C@@H](C(N)=O)NC(=O)[C@H](Cc2c[nH]c3ccccc23)NC(=O)[C@H](CCCNC(=N)N)NC(=O)[C@@H](Cc2ccc(F)cc2)NC(=O)[C@H](Cc2c[nH]cn2)NC1=O [Example 57, Ac-D-Arg-cyclo(Orn-His-D-Phe(4-F)-Arg-Trp-Glu)-NH2]",Ki,MC1-R,1 nM
same,EC50,hMC4-R [1]; [3],0.25 nM
same,Emax,hMC4-R [1]; [3],89%
same,EC50,hMC4-R [1]; [4],0.095 nM
same,Emax,hMC4-R [1]; [4],100%
same,Ki,hMC4-R [2],0.65 nM
